These results are taken from US11459298B2, “Class of dicationic compounds as well as the preparative method and the use thereof” (WEST CHINA HOSPITAL, SICHUAN UNIVERSITY, priority 2018, dated 2022).

The test system of experiment [1] is New Zealand white rabbits. In words: Experiment on muscle relaxation in anesthetized rabbits (TOF neuromuscular transmission monitor). The class given is in vivo, rabbit. As to conditions: for ED (2 x ED95): Oryctolagus cuniculus, intravenous injection, propofol anesthesia; for ED (2 x ED95) / Onset time / Recovery time: N = 8; for Onset time: TOF=0, after i.v. 2× ED95 equivalent dose; for Recovery time: TOF=90%, after i.v. 2× ED95 equivalent dose; for change characteristics of TOF 1-4 after administration: depolarizing vs non-depolarizing pattern. On the procedure:
Male New Zealand white rabbits weighing 2-3.5 kg were used as experimental animals for muscle relaxation test. The specific procedures were: propofol emulsion was intravenously administrated to induce and maintain general anesthesia (induction dose: 10 mg/kg; maintenance dose: […]). Tracheal intubation was carried out and respiratory support was used.

Experiment [2] relates to human body. The settings on record: after single administration, clinical use; cited from earlier work.

For the compound `COc1ccc(C[C@@H]2c3cc(OC)c(OC)cc3CC[N@+]2(C)CCC(=O)OCCCCCOC(=O)CC[N@@+]2(C)CCc3cc(OC)c(OC)cc3[C@H]2Cc2ccc(OC)c(OC)c2)cc1OC` [Cisatracurium, reference compound], in experiment [1], the ED (2 x ED95) is 0.08 mg/kg; the Onset time is greater than 90 s; the Recovery time amounted to 17.6 ± 5.2 min; the “change characteristics of TOF 1-4 after administration” value is “successively and gradually decreased, rather than in equal proportion”.

As for `C[N+](CCCCOC(=O)OCOC(=O)C[N+]1(Cc2ccc([N+](=O)[O-])cc2)CCCCC1)(Cc1ccccc1)Cc1ccc([N+](=O)[O-])cc1` (centres unmarked) [Compound 1], in experiment [1], the ED (2 x ED95) turned out to be 0.8 mg/kg, the Onset time is less than 40 s and the Recovery time is 5.2 ± 1.1 min.

In the case of `C[N+](CCOC(=O)OCOC(=O)C[N+]1(Cc2ccc([N+](=O)[O-])cc2)CCCCC1)(Cc1ccccc1)Cc1ccc([N+](=O)[O-])cc1` (centres unmarked) [Compound 2], in experiment [1], the ED (2 x ED95) stood at 0.9 mg/kg, the Onset time is on record as less than 40 s and the Recovery time came out at 6.4 ± 1.4 min.

Take `C[N+](CCOC(=O)OCOC(=O)CCC[N+]1(Cc2ccc([N+](=O)[O-])cc2)CCCCC1)(Cc1ccc(F)cc1)Cc1ccc([N+](=O)[O-])cc1` (centres unmarked) [Compound 3]: in experiment [1], the ED (2 x ED95) was 1.8 mg/kg, the Onset time is reported as less than 40 s and the Recovery time stood at 4.8 ± 0.5 min.

With `C[N+](CCOC(=O)OCOC(=O)CCC[N+]1(Cc2ccc([N+](=O)[O-])cc2)CCCCC1)(Cc1ccc(Cl)cc1)Cc1ccc([N+](=O)[O-])cc1` (centres unmarked) [Compound 4], in experiment [1], the ED (2 x ED95) was determined as 1.4 mg/kg, the Onset time was less than 40 s and the Recovery time is on record as 5.4 ± 0.9 min.

In the case of `C[N+](CCOC(=O)OCOC(=O)CCC[N+]1(Cc2ccc([N+](=O)[O-])cc2)CCCCC1)(Cc1ccc([N+](=O)[O-])cc1)Cc1ccc(Cl)cc1Cl` (centres unmarked) [Compound 5], in experiment [1], the ED (2 x ED95) turned out to be 1.6 mg/kg, the Onset time is reported as less than 40 s and the Recovery time came out at 5.2 ± 1.2 min.

In the case of `C[N+](CCOC(=O)OCOC(=O)CCC[N+]1(Cc2ccc([N+](=O)[O-])cc2)CCCCC1)(Cc1ccc([N+](=O)[O-])cc1)Cc1c(F)cccc1F` (centres unmarked) [Compound 6], in experiment [1], the ED (2 x ED95) was determined as 0.8 mg/kg, the Onset time is recorded as less than 40 s and the Recovery time stood at 4.1 ± 1.1 min.

As to `C[N+](CCOC(=O)OCOC(=O)CCC[N+]1(Cc2ccc([N+](=O)[O-])cc2)CCCCC1)(Cc1ccc([N+](=O)[O-])cc1)Cc1ccc([N+](=O)[O-])cc1` [Compound 7], in experiment [1], the ED (2 x ED95) was 1.6 mg/kg, the Onset time is on record as less than 40 s and the Recovery time is given as 5.2 ± 1.1 min.

Consider `C[N+](CCOC(=O)OCOC(=O)CCC[N+]1(Cc2ccc([N+](=O)[O-])cc2)CCCCC1)(Cc1ccc(C#N)cc1)Cc1ccc([N+](=O)[O-])cc1` (centres unmarked) [Compound 8], for which, in experiment [1], the ED (2 x ED95) came to 1.7 mg/kg, the Onset time was less than 40 s and the Recovery time came out at 7.2 ± 1.4 min.

Take `C[N+](CCOC(=O)OCOC(=O)CCC[N+]1(Cc2ccc([N+](=O)[O-])cc2)CCCCC1)(Cc1ccc([N+](=O)[O-])cc1)Cc1ccc(C(F)(F)F)cc1` (centres unmarked) [Compound 9]: in experiment [1], the ED (2 x ED95) worked out at 1.6 mg/kg, the Onset time was less than 40 s and the Recovery time turned out to be 5.2 ± 1.2 min.

For the compound `C[N+](CCOC(=O)OCOC(=O)CCC[N+]1(Cc2ccc(C(F)(F)F)cc2)CCCCC1)(Cc1ccccc1)Cc1ccc([N+](=O)[O-])cc1` (centres unmarked) [Compound 10], in experiment [1], the ED (2 x ED95) was 2.4 mg/kg, the Onset time is given as less than 40 s and the Recovery time was found to be 6.2 ± 0.9 min.

With `C[N+](CCOC(=O)OCOC(=O)CCC[N+]1(Cc2ccc([N+](=O)[O-])cc2)CCCCC1)(Cc1ccc(-c2ccccc2)cc1)Cc1ccc([N+](=O)[O-])cc1` (centres unmarked) [Compound 11], in experiment [1], the ED (2 x ED95) turned out to be 1.5 mg/kg, the Onset time is on record as less than 40 s and the Recovery time is on record as 7.7 ± 1.6 min.

As to `COc1ccc(C[N+](C)(CCOC(=O)OCOC(=O)CCC[N+]2(Cc3ccc(OC)c(OC)c3)CCCCC2)Cc2ccc(OC)c(OC)c2)cc1OC` [Compound 12], in experiment [1], the ED (2 x ED95) came out at 4.4 mg/kg, the Onset time is listed as less than 40 s and the Recovery time came out at 6.3 ± 2.1 min.

For `Cc1ccc(C[N+](C)(CCCCOC(=O)OCOC(=O)C[N+]2(Cc3ccc(C)c(C)c3)CCCCC2)Cc2ccc(C)c(C)c2)cc1C` [Compound 13], in experiment [1], the ED (2 x ED95) is 6.2 mg/kg, the Onset time was less than 40 s and the Recovery time is listed as 6.9 ± 1.7 min.

`C[N+](CCOC(=O)OCOC(=O)COCC[N+]1(Cc2ccc([N+](=O)[O-])cc2)CCCCC1)(Cc1ccccc1)Cc1ccc([N+](=O)[O-])cc1` (centres unmarked) [Compound 19]: in experiment [1], the ED (2 x ED95) is 0.8 mg/kg, the Onset time is less than 40 s and the Recovery time was 4.1 ± 0.8 min.

As to `CC1CC[N+](CCCC(=O)OCOC(=O)OCC[N+](C)(Cc2ccccc2)Cc2ccc([N+](=O)[O-])cc2)(Cc2ccc([N+](=O)[O-])cc2)CC1` (centres unmarked) [Compound 35], in experiment [1], the ED (2 x ED95) was 1 mg/kg, the Onset time is recorded as less than 40 s and the Recovery time turned out to be 7.2 ± 2.3 min.

With `C[N+](CCOC(=O)OCOC(=O)CCC[N+]1(Cc2ccc([N+](=O)[O-])cc2)CCCCC1)(Cc1ccc([N+](=O)[O-])cc1)Cc1ccsc1` (centres unmarked) [Compound 38], in experiment [1], the ED (2 x ED95) is 1.2 mg/kg, the Onset time is less than 40 s and the Recovery time is 4.4 ± 1.1 min.

For `C[N+](CCOC(=O)OCOC(=O)CCC[N+]1(Cc2ccc([N+](=O)[O-])cc2)CCC(F)(F)CC1)(Cc1ccccc1)Cc1ccc([N+](=O)[O-])cc1` (centres unmarked) [Compound 45], in experiment [1], the ED (2 x ED95) turned out to be 0.8 mg/kg, the Onset time was less than 40 s and the Recovery time came to 5.1 ± 1.4 min.

For the compound `C[N+](CCOC(=O)OCOC(=O)CCC[N+]1(Cc2ccc([N+](=O)[O-])cc2)CCCC1)(Cc1ccc(F)cc1)Cc1ccc([N+](=O)[O-])cc1` (centres unmarked) [Compound 47], in experiment [1], the ED (2 x ED95) came to 1.4 mg/kg, the Onset time is recorded as less than 40 s and the Recovery time came out at 3.1 ± 0.7 min.

Turning to `C[N+](C)(C)CCOC(=O)CCC(=O)OCC[N+](C)(C)C` [Succinylcholine, reference compound], in experiment [1], the ED (2 x ED95) is 1.8 mg/kg, the Onset time was less than 40 s, the Recovery time was 13.3 ± 3.5 min and the “change characteristics of TOF 1-4 after administration” value is “decreased in the same proportion until disappearance”. Moreover, the “duration of muscle relaxation / action time” value in experiment [2] is 10 min.

As for `CC(=O)O[C@H]1C[C@@H]2CC[C@@H]3[C@H](CC[C@@]4(C)[C@H]3C[C@H]([N+]3(C)CCCCC3)[C@@H]4OC(C)=O)[C@@]2(C)C[C@@H]1[N+]1(C)CCCCC1` [pancuronium], the “duration of muscle relaxation / action time” value in experiment [2] was greater than 60 min.

As for micuronium, the “duration of muscle relaxation / action time” value in experiment [2] was 15 to 20 min.
